The results in this text go back to patent publication US9932561B2, “Differentiating induced pluripotent stem cells into glucose-responsive, insulin-secreting progeny” (Mayo Foundation for Medical Education and Research, priority 2011, dated 2018).

What all share (type): cell-based, human
Assay [1] deals with iPS-derived definitive endoderm cells. Put plainly: Induction of pancreatic endoderm from iPS-derived definitive endoderm, immunofluorescence for PDX1, NEUROD1, NGN3. The following applies: definitive endoderm cells treated with FGF10, RA and CYC in the presence of ILV; without ILV low levels of PDX1 expression. As for the experimental part:
For immunostaining, iPS cells were fixed for 20 minutes at room temperature (RT) in 4% paraformaldehyde (PFA) in PBS, washed in PBS, and blocked for 30 minutes with 5% FBS in PBST (PBS with 0.1% Tween-20 (Sigma). Cells were stained with primary antibodies overnight at 4° C., rinsed by PBS, and incubated with secondary antibodies 1 hour at RT (Martinez-Fernandez et al., Circ. Res., 105:648-656 (2009)). Cells at different stages of differentiation were fixed and stained with primary and secondary antibodies. Primary and secondary antibodies used for characterization of iPS and derived cells were: SSEA-1, SSEA-4, TRA-1-60, TRA-1-81 (Millipore #SCR001), OCT4 (Cell Signaling Technology #2750), SOX2 (Cell Signaling Technology #2748), KLF4 (Abcam #ab26648), NANOG (Abcam #ab21624), mouse anti-S0X17 (R&D Systems #MAB1924), rabbit anti-HNF3 beta/FOXA2 (Millipore #07-633), rabbit anti-PDX1 (Santa Cruz Biotechnology #sc-25403), rabbit anti-NGN3 (Millipore #AB5684), rabbit anti-NEUROD1 (Abcam #16508), mouse anti-insulin (Sigma #I2018), rabbit anti-C-peptide (Cell Signaling Technology #4593), rabbit anti-Insulin (Cell Signaling Technology #4590), mouse anti-proinsulin C-peptide (Millipore #CBL94), mouse anti-glucagon (Abcam #ab10988), MafA (Santa Cruz Biotechnology #sc-66958), and rabbit anti-somatostatin (Dako #A0566). […]

Assay [2] relates to iPS-derived islet-like clusters. Put plainly: C-peptide release assay, glucose stimulated secretion, ELISA. The following applies: for C-peptide secretion in response to glucose challenge when the agent is left out of the cocktail: HCF#1-derived islet-like clusters differentiated without ILV or without GLP-1, glucose 10 mM and 27.7 mM. As for the experimental part:
(§1) (R&D systems) and 100 ng/mL activin A (Peprotech) in advanced RPMI (A-RPMI, Invitrogen) with Pen/Strep for 1 day, followed by treatment with 100 ng/mL activin A in A-RPMI supplemented with 0.2% FBS (Invitrogen) for two days. At step two, cells were cultured in A-RPMI medium containing 50 ng/mL FGF10 (R&D systems), 0.25 μM KAAD-cyclopamine (CYC), and 2% FBS for 2 days. Cells were then treated with 50 ng/mL FGF10, 0.25 μM CYC, and 2 μM all-trans Retinoic Acid (RA) (Sigma) in DMEM (Invitrogen) supplemented with Pen/Strep, 1× B27 supplement (Invitrogen) for 4 days at step three. Cells were then cultured in the presence of 50 ng/mL FGF10, 300 nM ILV (Axxora), and 55 nM GLP-1 (Sigma) in DMEM with 1 × B27 for 4 days at step four. In step five, differentiation medium included 10 μM DAPT (Sigma) and 55 nM GLP-1 in DMEM with 1× B27 and culture lasted 6 days. Finally, in step six, cells were cultured in the presence of 50 ng/mL hepatocyte growth factor (HGF) (R&D systems), 50 ng/mL Insulin-like growth factor 1 (IGF-1) (R&D systems) and 55 nM GLP-1 in CMRL-1066 medium (Invitrogen) with 1× B27 for 6 days. All experiments were repeated more than three times.
A C-peptide release assay was performed by incubating derived islet-like clusters in Krebs-Ringer solution with bicarbonate and HEPES (KRBH; 129 mM NaCl, 4.8 mM KCl, 2.5 mM CaCl2, 1.2 mM KH2PO4, 1.2 mM MgSO4, 5 mM NaHCO3, 10 mM HEPES, and 0.1% (wt/vol) BSA). […] C-peptide or proinsulin levels were determined using an ultrasensitive C-peptide/proinsulin ELISA kit (Alpco Diagnostics).
C-peptide secretion from iPS-derived islet-like clusters in response to glucose challenge, the critical physiological function of pancreatic beta cells, was analyzed. To determine whether islet-like cells are capable of C-peptide secretion in response to glucose induction, cells were exposed to increasing concentrations of glucose and secreted C-peptide was measured by ELISA. […]

For assay [3], the system named is iPS-derived pancreatic endoderm cells. The assay can be described thus: RT-PCR of pancreatic hormone and islet marker genes during guided differentiation. The note with it: following inclusion of GLP-1 with HGF, IGF and DAPT. As for the experimental part: as §1, with “Finally, in step six, cells were cultured in the presence of 50 ng/mL hepatocyte growth factor (HGF) (R&D systems), 50 ng/mL Insulin-like growth factor 1 (IGF-1) (R&D systems) and 55 nM GLP-1 in CMRL-1066 medium (Invitrogen) with 1× B27 for 6 days. All experiments were repeated more than three times.” left out
To determine the expression of endocrine-specific transcription factors and pancreas-specific genes throughout differentiation, the gene expression pattern was analyzed at each stage of differentiation. RT-PCR detected high levels of FOXA2 expression after 3 days of differentiation, confirming induction of definitive endoderm cells (FIG. 8A). […]

Where no end group is shown, it is not given here.

For `CC(C)[C@H]1C(=O)N[C@H](CO)Cc2c[nH]c3cccc(c23)N1C` [ILV, indolactam V], the “expression of pancreatic endoderm markers” value in assay [1] was “resulted in cells expressing PDX1, NEUROD1, and NGN3”. Moreover, the “C-peptide secretion in response to glucose challenge when the agent is left out of the cocktail” value in assay [2] is listed as “failed to secrete C-peptide”.
Turning to Exendin-4, the C-peptide secretion result in assay [2] (pancreatic endoderm treated with HGF, IGF, Exendin-4 and DAPT, data not shown) is given as “failed produce detectable C-peptide secretion”.
For “glucagon like peptide-1 (HAEGTFTSDVSSYLEGQAAKEFIAWLVKGR; ends and bridges not checked; UniProt P01275 98-127, looked up) [GLP-1, GLP-1 polypeptide (Sigma), used at 55 nM in the differentiation medium]”, the “C-peptide secretion in response to glucose challenge when the agent is left out of the cocktail” value in assay [2] is “failed to secrete C-peptide”. Besides, in assay [3], the “gene expression of pancreatic hormones and islet markers by RT-PCR” value was “positive gene expression of pancreatic hormones”.
